In data set [1] the test system is southern root-knot nematodes. The data set can be described thus: Test on root-knot nematodes (soil pot test, tomato). The data set is classed as in vivo. The note with it: active ingredient 50 ppm in infested soil; tomato plants; after 4 weeks. Here is the method:
Fine granular formulations were prepared by impregnating 99 parts of pumice with 1 part each of active compounds.
Each of the active compounds prepared in the above-described manner was added to soil infested with southern root-knot nematodes so as to give an active ingredient concentration of 50 ppm, and intimately blended therein. This soil was charged into pots having an area of 1/5000 are, and about 20 tomato seeds (of the Kurihara variety) were sown in each pot. Tomato plants were grown in a greenhouse and, after 4 weeks, extracted so as not to injure their roots. Then, the root knot index and the controlling effect for each active compound were determined in the following manner.
0: No knot was formed (perfectly controlled).
1: Knots were formed to a slight degree.
2: Knots were formed to a moderate degree.
3: Knots were formed to a heavy degree.
4: Knots were formed to the heaviest degree (corresponding to no treatment). [formula]
According to the value of the controlling effect, the effectiveness was rated on the following basis.
a: The controlling effect was in the range of 100 to 71%.
b: The controlling effect was in the range of 70 to 50%.
c: The controlling effect was less than 50%.
d: The controlling effect was 0%.

Data set [2] has as its system Trichinella spiralis larvae. In words: Test on Trichinella spiralis, Owen, larvae. The data set is classed as in vivo. Conditions: 100 μg/ml; incubated at 19° C. for five days. As to the method:
The method was carried out, in accordance with a method described in Tropenmed. Parasitol., vol. 32 (1981), 31-34, Jenkins, D. C., and Carrington, T. S. T. spiralis larvae were isolated from skeletal muscles and diaphragms of SPF/CFW1 mice and stored in sodium chloride solution ([…]) supplemented with Canested (20 μg/ml). The larvae (20 per estimation) were incubated in 2 ml of a solution with the following composition: Casitone 20; yeast extract 10; glucose 5; potassium dihydrogen phosphate 0.8; dipotassium hydrogen phosphate 0.8 g/l in water (500 ml; pH 7.2) and supplemented with Sisomycin (10 mg/l) and Canesten (1 mg/l).
The test compound (10 mg) was dissolved in dimethylsulfoxide (0.5 ml) and added to the incubation medium containing the larvae to give final concentrations of 100 μg/ml. The mixture was incubated at 19° C. for five days, after which activity was assessed according to Jenkins and Carrington a scale 1-3 where 1=weak activity (fewer live larvae than in the untreated control); 2=good activity (>=50% more dead larvae than in the untreated control) and 3=full activity (all larvae dead).

Data set [3] has as its system Nippostrongylus brasiliensis adult worms. The data set can be described thus: Test on Nippostrongylus brasiliensis, Lane, adult (acetylcholine esterase activity of incubation medium). The data set is classed as in vivo. Conditions: 100 μg/ml. As to the method:
The method was carried out, in accordance with a method described in Parasitol. Res., vol. 73 (1987) 191, Rapson, E. B. et al. N.brasiliensis adult worms are isolated from the small intestine of female Wister rats and in sodium chloride solution ([…]) supplemented with Canesten (2 mg/l) and Sisomycin (20 mg/l). Worms (five male and five female) were incubated, according to the method of Rapson et al, and the incubation medium was adjusted so as to give final concentrations of 100 μg/ml. The resulting incubation medium was for acetylcholine esterase activity, as performed by Rapso et al. using a scale 0-3 where 0=no activity (<50% enzyme inhibition) and 1, 2 and 3 weak, good and full activity (50-75, >75 and 100% enzyme inhibition, respectively).

Data set [4] deals with Meloidogyne incognita. In words: Meloidogyne test (Test Example 6, infected soil, lettuce). Conditions: active compound concentration 20 ppm, lettuce root galls. The data set is classed as in vivo. As to the method: (§1) Test nematode: Meloidogyne incognita
Solvent: 31 parts by weight of acetone
(§2) Emulsifier: 1 part by weight of alkylaryl polyglycol ether
(§3) To produce a suitable preparation of active compound, 1 part by weight of active compound is mixed with the stated amount of solvent and the stated amount of emulsifier is added and the concentrate is diluted with water to the desired concentration.
(§4) The active compound preparation is intimately mixed with soil which is heavily infected with the test nematodes. The treated soil is transferred into pots, lettuce seeds are sown and the pots are kept in the greenhouse.
(§5) After the desired time the lettuce roots are checked for infestation with nematodes (root galls) and the efficacy of the active compound in % is determined. The efficacy is 100% when infestation is avoided completely and 0% when infestation level is just as high as in the control plants in untreated but equally infested soil.

In data set [5] the test system is Meloidogyne incognita. The data set can be described thus: Meloidogyne test (Test Example 5, infected soil, lettuce). The data set is classed as in vivo. Conditions: active compound concentration 5 ppm; lettuce root galls. As to the method: as §1
Solvent: 4 parts by weight of acetone
as §2, §3, §4, §5

On to `COc1ccc(-c2cc(-c3cccs3)n[nH]2)cc1` [compound 2, 3-(2-Thienyl)-5-(4-methoxyphenyl)-1H-pyrazole, reference compound], for which the “Evaluation (controlling effect from root knot index)” value in data set [1] is on record as “d (The controlling effect was 0%.)”. In the case of `Fc1ccc(-c2cc(-c3cccs3)[nH]n2)cc1` [Compound 6, 3-(4-fluorophenyl)-5-(2-thienyl)-1H-pyrazole], the “Evolution (activity, scale 1-3)” value in data set [2] was 2 (2=good activity (>=50% more dead larvae than in the untreated control)). Besides, the “Evaluation (controlling effect from root knot index)” value in data set [1] is reported as “a (The controlling effect was in the range of 100 to 71%.)”. Moreover, in data set [3], the “Evalution (acetylcholine esterase inhibition, scale 0-3)” value is 3 (1, 2 and 3 weak, good and full activity (50-75, >75 and 100% enzyme inhibition, respectively)).

The melting point is the temperature, or range, at which the solid turns liquid. The molecule `Clc1ccc(-c2cc(-c3cccs3)[nH]n2)cc1` [Compound 7, 3-(4-chlorophenyl)-5-(2-thienyl)-1H-pyrazole] returned a melting point of 217 °C. The “Evaluation (controlling effect from root knot index)” value in data set [1] is on record as “a (The controlling effect was in the range of 100 to 71%.)”. As for `CCCc1c(-c2ccc(Cl)cc2)n[nH]c1-c1cccs1`, the melting point is 129 to 132 °C. Consider `Fc1cccc(F)c1-c1cc(-c2cccs2)[nH]n1`, for which the “kill in % after 14 d” value in the data set on Meloidogyne incognita [4] was 100%.

Regarding `CSCc1c(-c2ccc(Cl)cc2)n[nH]c1-c1cccs1` [Compound 49, 3-(4-Chlorophenyl)-4-methylmercaptomethyl-5-(2-thienyl)-1H-pyrazole], in data set [2], the “Evolution (activity, scale 1-3)” value is 2 (2=good activity (>=50% more dead larvae than in the untreated control)). Besides, the “Evalution (acetylcholine esterase inhibition, scale 0-3)” value in data set [3] is 3 (1, 2 and 3 weak, good and full activity (50-75, >75 and 100% enzyme inhibition, respectively)).

In turn, `CC(C)(C)c1ccc(-c2cc(-c3cccs3)[nH]n2)cc1` gave a melting point of 61 to 65 °C.

For `C=C(C)C(=O)n1nc(-c2ccc(Cl)cc2)cc1-c1cccs1`, in the data set with Meloidogyne incognita [5], the “kill (%)” value was 100%. For the molecule “1-acetyl-3-(4-chlorophenyl)-5-(2-thienyl)-1H-pyrazole and 1-acetyl-3-(2-thienyl)-5-(4-chlorophenyl)-1H-pyrazole [Compound 58]”, the “Evaluation (controlling effect from root knot index)” value in data set [1] is “a (The controlling effect was in the range of 100 to 71%.)”.

`FC(F)(F)Oc1ccc(-c2cc(-c3cccs3)[nH]n2)cc1` [Compound 26]: in data set [1], the “Evaluation (controlling effect from root knot index)” value was “a (The controlling effect was in the range of 100 to 71%.)”. Same read-out and setting: for `c1ccc(-c2cc(-c3cccs3)n[nH]2)cc1` [compound 1, 3-(2-Thienyl)-5-phenyl-1H-pyrazole, reference compound] the value was “c (The controlling effect was less than 50%.)”; for `CCc1ccc(-c2cc(-c3cccs3)[nH]n2)cc1` [Compound 11], “a (The controlling effect was in the range of 100 to 71%.)”. On to `Ic1ccc(-c2cc(-c3cccs3)[nH]n2)cc1` [Compound 9], for which the “Evaluation (controlling effect from root knot index)” value in data set [1] is listed as “a (The controlling effect was in the range of 100 to 71%.)”. The “Evalution (acetylcholine esterase inhibition, scale 0-3)” value in data set [3] was 3 (1, 2 and 3 weak, good and full activity (50-75, >75 and 100% enzyme inhibition, respectively)). `CCc1c(-c2ccc(Cl)cc2)n[nH]c1-c1cccs1` [Compound 46]: the “Evolution (activity, scale 1-3)” value in data set [2] is recorded as 2 (2=good activity (>=50% more dead larvae than in the untreated control)). Further, the “Evalution (acetylcholine esterase inhibition, scale 0-3)” value in data set [3] was 3 (1, 2 and 3 weak, good and full activity (50-75, >75 and 100% enzyme inhibition, respectively)).
